# Test results published in patent US20250368620A1, “ARNT Degrading Compounds and Uses Thereof” (Celgene Corporation, priority 2024, published 2025).
# Target: T1, ARNT (Homo sapiens, UniProt P27540)
# T1 construct: an sgRNA targeting the C-terminus of the ARNT gene near the stop codon; endogenous in cells; host or cells: HEK293 ARNT-HiBiT knock-in, homozygous clone
# Assay: ARNT degradation in a HiBiT system (HEK293 ARNT-HiBiT Knock-In cell line)
# Type: cell-based
# Details: half-maximal degradation concentration; HEK293 ARNT-HiBiT KI cells, 4h of treatment, luminescence
# Method: Compounds of Formula (I) were tested for ARNT degradation in a HiBiT system. A HEK293 ARNT-HiBiT Knock-In cell line was generated using CRISPR/Cas9 technology. Briefly, HEK293 cells were electroporated with the Neon system with an sgRNA targeting the C-terminus of the ARNT gene near the stop codon ([…] (SEQ ID NO: 1); chr 1: 150,812,014-150,812,034) and the HiBiT donor DNA template (80 nucleotides homology arms upstream and downstream of the insert site, with a GSGS (SEQ ID NO: 2) linker). A homozygous clone was selected after Sanger sequencing, and genetic edition was further validated using Nano-Glo HiBiT blotting system. HEK293 ARNT-HiBiT KI cells were cultured in DMEM+10% FBS at 37° C. and 5% CO2. For the assay, cells were seeded at 10,000 cells/well in white 384 plates (Corning #3570) in 22.5 μl of culture medium without phenol red. Test compounds were spotted in 384-well plates by an acoustic dispenser (10 concentrations, semi-log dilution, in 100% DMSO). Before treatment, compounds were diluted 1:100 or 1:1,000 in culture medium without phenol red, and cells were treated with 2.5 μl of diluted compounds 18h after seeding (final top concentration: 3 or 0.3 μM). After 4h of treatment, plates were equilibrated at room temperature for 30 min, and 25 μl of NANO-GLO® HiBiT Lytic reagent were added per well. Luminescence was measured on a plate reader 15 min after incubation with the detection reagent. Data were analyzed using the Genedata Screener Software version 19, and normalization was performed using the DMSO treated wells as Neutral Control and medium only (without cells) wells as Scale Reference. For curve fitting, the smart fit condensing method with a 4-parameters Hill model was used and the half-maximal degradation concentration (DC50) was calculated.
# T1 sequence (P27540 whole entry): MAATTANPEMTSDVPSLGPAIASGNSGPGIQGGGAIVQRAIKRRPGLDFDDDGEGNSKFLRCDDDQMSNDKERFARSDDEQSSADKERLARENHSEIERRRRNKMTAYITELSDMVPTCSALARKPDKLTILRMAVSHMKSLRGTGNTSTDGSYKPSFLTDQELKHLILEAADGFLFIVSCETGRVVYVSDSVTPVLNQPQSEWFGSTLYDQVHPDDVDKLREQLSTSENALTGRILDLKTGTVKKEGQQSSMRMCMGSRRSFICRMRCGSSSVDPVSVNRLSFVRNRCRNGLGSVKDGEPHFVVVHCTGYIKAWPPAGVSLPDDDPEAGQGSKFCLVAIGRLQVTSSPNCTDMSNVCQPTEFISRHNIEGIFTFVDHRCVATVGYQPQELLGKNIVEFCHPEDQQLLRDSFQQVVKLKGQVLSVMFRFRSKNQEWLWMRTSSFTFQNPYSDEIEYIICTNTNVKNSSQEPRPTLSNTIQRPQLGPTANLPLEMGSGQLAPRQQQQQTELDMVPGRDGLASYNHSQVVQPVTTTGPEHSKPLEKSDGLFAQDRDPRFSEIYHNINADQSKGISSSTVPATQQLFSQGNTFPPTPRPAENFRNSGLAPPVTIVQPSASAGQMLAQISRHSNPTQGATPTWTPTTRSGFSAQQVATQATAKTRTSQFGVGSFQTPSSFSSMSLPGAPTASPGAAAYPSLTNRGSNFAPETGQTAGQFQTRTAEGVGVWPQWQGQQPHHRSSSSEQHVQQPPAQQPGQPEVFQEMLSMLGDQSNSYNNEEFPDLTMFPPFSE
row,DC50 [nM],Compound
1,1.3,"C[C@@H]1c2cc(C(=O)N3Cc4cc(C(F)(F)F)ccc4[C@@H]3C)c(F)cc2C(=O)N1[C@H]1CCC(=O)NC1=O [Compound 20, (S)-3-((R)-5-fluoro-1-methyl-6-((S)-1-methyl-5-(trifluoromethyl)isoindoline-2-carbonyl)-3-oxoisoindolin-2-yl)piperidine-2,6-dione]"
2,1.8,"C[C@@H]1c2c(ccc(C(=O)N3Cc4ccccc4[C@@H]3CN(C)C)c2F)C(=O)N1[C@H]1CCC(=O)NC1=O [Compound 29, (S)-3-((R)-5-((R)-1-((dimethylamino)methyl)isoin-doline-2-carbonyl)-4-fluoro-3-methyl-1-oxoisoindolin-2-yl)piperidine-2,6-dione]"
3,1,"C[C@H]1c2ccc(C(F)(F)F)cc2CN1C(=O)c1ccc2c3c(cccc13)N(C1CCC(=O)NC1=O)C2=O (stereo partly drawn) [Compound 16, 3-(5-((S)-1-methyl-5-(trifluoromethyl)isoindoline-2-carbonyl)-2-oxobenzo[cd]indol-1(2H)-yl)piperidine-2,6-dione]"
4,3,"COc1c(C(=O)N2Cc3c(ccc(Cl)c3F)[C@@H]2C)ccc2c1[C@@H](C)N([C@H]1CCC(=O)NC1=O)C2=O [Compound 33, (S)-3-((R)-5-((S)-5-chloro-4-fluoro-1-methylisoindoline-2-carbonyl)-4-methoxy-3-methyl-1-oxoisoindolin-2-yl)piperidine-2,6-dione]"
5,0.42,"C[C@H]1c2ccc(Cl)c(F)c2CN1C(=O)c1ccc2c3c(cccc13)N(C1CCC(=O)NC1=O)C2=O (stereo partly drawn) [Compound 5, 3-(5-((S)-5-chloro-4-fluoro-1-methylisoindoline-2-carbonyl)-2-oxobenzo[cd]indol-1(2H)-yl)piperidine-2,6-dione]"
6,6.5,"C[C@@H]1c2cc(C(=O)N3Cc4cc(C(F)(F)F)ccc4[C@@H]3C)ccc2C(=O)N1[C@@H]1CCC(=O)NC1=O [Compound 37, (R)-3-((R)-3-methyl-5-((S)-1-methyl-5-(trifluoromethyl)isoindoline-2-carbonyl)-1-oxoisoindolin-2-yl)piperidine-2,6-dione]"
7,0.66,"C[C@@H]1c2cc(C(=O)N3Cc4cc(Br)ccc4[C@@H]3C)ccc2C(=O)N1[C@H]1CCC(=O)NC1=O [Compound 9, (S)-3-((R)-5-((S)-5-bromo-1-methylisoindoline-2-carbonyl)-3-methyl-1-oxoisoindolin-2-yl)piperidine-2,6-dione]"
8,1.2,"C[C@@H]1c2cc(C(=O)N3Cc4c(ccc(Br)c4F)[C@@H]3C)ccc2C(=O)N1[C@H]1CCC(=O)NC1=O [Compound 19, (S)-3-((R)-5-((S)-5-bromo-4-fluoro-1-methylisoindoline-2-carbonyl)-3-methyl-1-oxoisoindolin-2-yl)piperidine-2,6-dione]"
9,0.78,"C[C@@H]1c2cc(C(=O)N3Cc4cc(F)ccc4[C@@H]3C)ccc2C(=O)N1[C@H]1CCC(=O)NC1=O [Compound 13, (S)-3-((R)-5-((S)-5-fluoro-1-methylisoindoline-2-carbonyl)-3-methyl-1-oxoisoindolin-2-yl)piperidine-2,6-dione]"
10,2.2,"C[C@@H]1c2cc(C(=O)N3Cc4cc(C(F)(F)F)ccc4[C@@H]3C)ccc2C(=O)N1[C@H]1CCC(=O)NC1=O [Compound 31, (S)-3-((R)-3-methyl-5-((S)-1-methyl-5-(trifluoromethyl)isoindoline-2-carbonyl)-1-oxoisoindolin-2-yl)piperidine-2,6-dione]"
11,1.2,"C[C@@H]1c2cc(C(=O)N3Cc4c(ccc(Cl)c4F)[C@@H]3CN3CCC3)ccc2C(=O)N1[C@H]1CCC(=O)NC1=O [Compound 17, (S)-3-((R)-5-((R)-1-(azetidin-1-ylmethyl)-5-chloro-4-fluoroisoindoline-2-carbonyl)-3-methyl-1-oxoisoindolin-2-yl)piperidine-2,6-dione]"
12,0.46,"C[C@@H]1c2cc(C(=O)N3Cc4c(ccc(Cl)c4F)[C@@H]3CN3CCCCC3)ccc2C(=O)N1[C@H]1CCC(=O)NC1=O [Compound 6, (S)-3-((R)-5-((R)-5-chloro-4-fluoro-1-(piperidin-1-ylmethyl)isoindoline-2-carbonyl)-3-methyl-1-oxoisoindolin-2-yl)piperidine-2,6-dione]"
13,2.3,"C[C@@H]1c2cc(C(=O)N3Cc4c(ccc(C(F)(F)F)c4F)[C@@H]3C)ccc2C(=O)N1[C@H]1CCC(=O)NC1=O [Compound 32, (S)-3-((R)-5-((S)-4-fluoro-1-methyl-5-(trifluoromethyl)isoindoline-2-carbonyl)-3-methyl-1-oxoisoindolin-2-yl)piperidine-2,6-dione]"
